Series [1] is described as follows: Metabolite identification in rat plasma, urine and feces by HPLC-Q-TOF MS/MS. The class given is in vivo, Sprague-Dawley rats. Particulars: rats, bornyl caffeate ig 30 mg kg^−1; p plasma, u urine, f feces.
Series [2] is described as follows: Pharmacokinetic study in rats, plasma by HPLC-Ion-Trap-MS/MS. In kind it is in vivo, Sprague-Dawley rats.
Series [3] in a line: Stability of bornyl caffeate and caffeic acid in rat plasma. The class given is in vitro ADME. Particulars: for Autosampler stability Concentration measured / Autosampler stability Stability (%): processed rat plasma QC, autosampler 20 °C 24 h; for Autosampler stability Concentration measured / Autosampler stability Stability (%) / Short-term Concentration measured / Short-term Stability (%) / Freeze–thaw Concentration measured / Freeze–thaw Stability (%) / Long-term Concentration measured / Long-term Stability (%): n = 6; for Short-term Concentration measured / Short-term Stability (%) / Freeze–thaw Concentration measured / Freeze–thaw Stability (%) / Long-term Concentration measured / Long-term Stability (%): rat plasma; for Short-term Concentration measured / Short-term Stability (%): room temperature 24 h; for Freeze–thaw Concentration measured / Freeze–thaw Stability (%): three freeze–thaw cycles (−20 °C 24 h); for Long-term Concentration measured / Long-term Stability (%): −20 °C 3 weeks.

[4] abbreviates: CA in rat plasma after CA ig 17 mg kg^−1, n = 6.
Where [5] appears, read: Sprague-Dawley, rat, plasma, po, 17 mg/kg.

Molecules are shown by their SMILES.

Consider `COc1ccc(/C=C/C(=O)O)cc1O` [M14b, Isoferulic acid], for which, in series [1], the “Location (samples in which parent or metabolite was detected)” value (“Location” for short) is given as “observed in all the three kinds of samples”.
The same measure, in the same setting: the entry for `O=C(O)CCc1ccc(O)c(O)c1` [M4, Dihydrocaffeic acid] is “observed in all the three kinds of samples”.
`O=C(O)c1ccccc1` [M8, Benzoic acid]: the “Location” value in series [1] is “urine and feces”.
In the case of `O=C(O)/C=C/c1ccc(O)c(O)c1` [Caffeic acid], in series [2] (setting [4]), the “T 1/2Ka” value worked out at 7.2 ± 1.8 min and the “T 1/2α1” value was 24 ± 5.4 min. Further, in series [2] (setting [5]), the AUC(0-inf) amounted to 821 ± 86.2 ng·h/mL, the AUC(0-t) was determined as 787 ± 80.3 ng·h/mL, the Cmax came to 450 ± 13.8 ng/mL and the Tmax came out at 15 ± 0.6 min. Moreover, in series [3] (4 ng mL^−1 added), the “Autosampler stability Concentration measured” value turned out to be 3.93 ± 0.16 ng/mL, the “Autosampler stability Stability (%)” value came out at 98.25%, the “Short-term Concentration measured” value came out at 3.97 ± 0.15 ng/mL and the “Short-term Stability (%)” value is given as 99.38%. In series [3] (4 ng mL^−1 added), the “Freeze–thaw Concentration measured” value amounted to 3.77 ± 0.14 ng/mL, the “Freeze–thaw Stability (%)” value turned out to be 94.29%, the “Long-term Concentration measured” value came to 4.03 ± 0.18 ng/mL and the “Long-term Stability (%)” value is listed as 100.79%. In series [3] (200 ng mL^−1 added), the “Autosampler stability Concentration measured” value was 191.9 ± 6.19 ng/mL, the “Autosampler stability Stability (%)” value came out at 95.95%, the “Short-term Concentration measured” value was 196.41 ± 4.57 ng/mL and the “Short-term Stability (%)” value was determined as 98.2%. In series [3] (200 ng mL^−1 added), the “Freeze–thaw Concentration measured” value turned out to be 202.1 ± 6.48 ng/mL, the “Freeze–thaw Stability (%)” value came to 101.05%, the “Long-term Concentration measured” value stood at 197.22 ± 6.86 ng/mL and the “Long-term Stability (%)” value stood at 98.61%. For the same molecule, in series [3] (3000 ng mL^−1 added), the “Autosampler stability Concentration measured” value was 2991.17 ± 12.48 ng/mL, the “Autosampler stability Stability (%)” value is given as 99.7%, the “Short-term Concentration measured” value was 3009.81 ± 6.45 ng/mL and the “Short-term Stability (%)” value is 100.33%. In addition, in series [3] (3000 ng mL^−1 added), the “Freeze–thaw Concentration measured” value amounted to 2835.08 ± 9.86 ng/mL, the “Freeze–thaw Stability (%)” value came out at 94.23%, the “Long-term Concentration measured” value is 2990.99 ± 4.97 ng/mL and the “Long-term Stability (%)” value was determined as 99.7%. The “stability in plasma (in words)” value in series [3] (room temperature for 24 h, −20 °C for 3 weeks, or autosampler for 24 h) was “stable”.
As for `COc1cc(CCC(=O)O)ccc1O` [M9a, Dihydroferulic acid], the “Location” value in series [1] is “found in rat feces alone”.
